The values below come from ChEMBL document CHEMBL4196200 (J Med Chem, 2018).

By EC50 is commonly meant the concentration at which the effect is half-maximal. Usually Emax stands for the greatest response seen or fitted, relative to the assay's reference. Usually IC50 stands for the concentration that inhibits the measured activity by half. Read a high IC50 as lower potency. As usually defined, the Ki is a dissociation constant, usually derived from enzyme kinetics or from competition with a known ligand. Higher therefore signals weaker binding. As a reminder, the inhibition is the relative decrease from the control value, in per cent.

The target in data set [1] is T1, Oxytocin receptor (Mus musculus, UniProt P97926).
T1 sequence (P97926 whole entry): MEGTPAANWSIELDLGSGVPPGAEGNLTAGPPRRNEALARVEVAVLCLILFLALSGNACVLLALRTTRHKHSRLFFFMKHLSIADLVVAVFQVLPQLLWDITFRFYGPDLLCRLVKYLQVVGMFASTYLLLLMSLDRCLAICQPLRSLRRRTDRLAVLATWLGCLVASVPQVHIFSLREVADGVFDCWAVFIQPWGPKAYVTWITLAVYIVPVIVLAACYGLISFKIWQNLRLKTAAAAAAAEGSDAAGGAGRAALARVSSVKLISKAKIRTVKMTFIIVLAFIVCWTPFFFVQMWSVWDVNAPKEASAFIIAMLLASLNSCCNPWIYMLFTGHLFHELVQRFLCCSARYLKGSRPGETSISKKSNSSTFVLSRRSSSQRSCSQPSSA
The data set can be described thus: Agonist activity at mouse OTR receptor expressed in HEK293FT cells assessed as stimulation of calcium release by Aequorin based assay. The data set is classed as functional, cell-based.

Data set [2] concerns the target T2, Oxytocin receptor (Mus musculus) (UniProt P97926).
T2 sequence (whole entry): T1 sequence (P97926 whole entry)
The data set can be described thus: Agonist activity at mouse OTR receptor expressed in HEK293FT cells assessed as stimulation of calcium release by Aequorin based assay relative to OT. The data set is classed as functional, cell-based.

Data set [3] deals with T3, Vasopressin V1a receptor (Homo sapiens, UniProt P37288).
Target sequence in this assay (P37288 whole entry): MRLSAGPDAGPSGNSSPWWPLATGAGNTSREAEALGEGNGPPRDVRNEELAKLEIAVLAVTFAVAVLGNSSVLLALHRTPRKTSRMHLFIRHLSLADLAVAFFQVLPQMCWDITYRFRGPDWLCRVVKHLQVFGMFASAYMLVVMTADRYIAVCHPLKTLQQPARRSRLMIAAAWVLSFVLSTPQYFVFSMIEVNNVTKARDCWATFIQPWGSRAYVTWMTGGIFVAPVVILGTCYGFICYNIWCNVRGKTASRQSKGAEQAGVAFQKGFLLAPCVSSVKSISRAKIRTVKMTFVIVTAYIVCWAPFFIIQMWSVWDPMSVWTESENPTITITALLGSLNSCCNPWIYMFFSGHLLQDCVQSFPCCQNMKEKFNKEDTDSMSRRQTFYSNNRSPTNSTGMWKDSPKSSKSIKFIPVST
Description: Agonist activity at human V1a receptor expressed in HEK293FT cells assessed as stimulation of calcium release by Aequorin based assay
Data set [4] deals with T3, Vasopressin V1a receptor. This is another data set of the same source.
Target sequence in this assay (P37288 whole entry): as above
Description: Agonist activity at human V1a receptor expressed in HEK293FT cells incubated for 30 mins by beta-arrestin recruitment assay
Data set [5] addresses T4, Vasopressin V1b receptor (Homo sapiens, UniProt P47901).
T4 sequence (P47901 whole entry): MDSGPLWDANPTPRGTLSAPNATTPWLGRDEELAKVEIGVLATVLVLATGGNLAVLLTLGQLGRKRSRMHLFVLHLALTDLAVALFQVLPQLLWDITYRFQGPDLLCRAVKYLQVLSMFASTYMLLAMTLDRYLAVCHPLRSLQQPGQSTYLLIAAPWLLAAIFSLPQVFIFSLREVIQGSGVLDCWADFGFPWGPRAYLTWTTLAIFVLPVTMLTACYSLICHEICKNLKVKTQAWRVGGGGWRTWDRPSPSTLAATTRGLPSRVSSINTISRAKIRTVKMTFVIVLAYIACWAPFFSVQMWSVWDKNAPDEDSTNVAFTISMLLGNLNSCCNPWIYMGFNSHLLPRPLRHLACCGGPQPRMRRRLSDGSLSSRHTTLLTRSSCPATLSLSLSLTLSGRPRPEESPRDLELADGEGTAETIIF
Description: Agonist activity at human V1b receptor expressed in HEK293FT cells incubated for 30 mins by beta-arrestin recruitment assay

In data set [6] the target is T4, Vasopressin V1b receptor. Description: Binding affinity to V1B receptor (unknown origin).
Data set [7] concerns the target T5, Vasopressin V2 receptor (Homo sapiens, UniProt P30518). The data set can be described thus: Binding affinity to V2 receptor (unknown origin).
The target of data set [8] is T5, Vasopressin V2 receptor. The data set can be described thus: Displacement of DY647 from SNAP-tagged V2 receptor (unknown origin) expressed in HEK293 cells by TR-FRET assay. In kind it is cell-based. Background: Time-resolved FRET reads energy transfer from a long-lived donor to a nearby acceptor.
The target in data set [9] is T6, Oxytocin receptor (Homo sapiens) (UniProt P30559).
T6 sequence (whole entry): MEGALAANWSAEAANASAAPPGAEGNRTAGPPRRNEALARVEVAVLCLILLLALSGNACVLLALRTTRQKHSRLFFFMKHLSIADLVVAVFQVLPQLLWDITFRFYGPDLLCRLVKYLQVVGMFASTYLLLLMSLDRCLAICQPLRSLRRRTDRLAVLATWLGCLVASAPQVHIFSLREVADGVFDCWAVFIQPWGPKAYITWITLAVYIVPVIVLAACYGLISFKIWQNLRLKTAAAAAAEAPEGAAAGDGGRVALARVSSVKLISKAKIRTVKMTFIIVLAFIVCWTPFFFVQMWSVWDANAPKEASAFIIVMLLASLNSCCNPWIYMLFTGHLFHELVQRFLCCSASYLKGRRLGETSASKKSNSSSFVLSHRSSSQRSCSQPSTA
Description: Agonist activity at human OTR expressed in HEK cells assessed as increase in intracellular calcium flux incubated for 45 mins by Indo1-AM dye based fluorescence assay relative to OT. In kind it is functional, cell-based. For orientation: Calcium flux is commonly read through the fluorescence of an indicator in the cells.

Data set [10] addresses T6, Oxytocin receptor (Homo sapiens). Description: Antagonist activity at human OTR expressed in HEK cells assessed as inhibition of OT-induced intracellular calcium flux at 1 uM incubated for 45 mins by Indo1-AM dye based fluorescence assay relative to OT. In kind it is functional, cell-based.
A short description of data set [11]: Thermodynamic solubility in pH 7.4 buffer. The data set is classed as physicochemical. The following applies: read-out: Therm_solubility.
The target of data set [12] is T6, Oxytocin receptor (Homo sapiens). The data set can be described thus: Agonist activity at human OTR receptor expressed in HEK293FT cells assessed as stimulation of calcium release by Aequorin based assay relative to OT. In kind it is functional, cell-based.
The target in data set [13] is T5, Vasopressin V2 receptor. Description: Agonist activity at human V2 receptor expressed in HEK293FT cells assessed as stimulation of calcium release by Aequorin based assay. The data set is classed as functional, cell-based.
In data set [14] the target is T6, Oxytocin receptor (Homo sapiens). Description: Agonist activity at human OTR receptor expressed in HEK293FT cells incubated for 30 mins by beta-arrestin recruitment assay relative to OT. In kind it is functional, cell-based. On the technique in general: Recruitment of arrestin is a read-out of receptor activation apart from second messengers.
Data set [15] shares this target. The data set can be described thus: Agonist activity at recombinant human OTR expressed in CHO-DUKX-A2 cells assessed as stimulation of intracellular calcium concentration by calcium 3 dye based FLIPR assay relative to OT. In kind it is functional, cell-based.
The target in data set [16] is T3, Vasopressin V1a receptor. Description: Antagonist activity at V1A receptor (unknown origin). In kind it is functional.
Target sequence in this assay (P37288 whole entry): as the sequence (P37288 whole entry) above
Data set [17] deals with T5, Vasopressin V2 receptor. The data set can be described thus: Antagonist activity at V2 receptor (unknown origin). The data set is classed as functional.
The target in data set [18] is T7, Oxytocin receptor (Homo sapiens, UniProt P30559).
T7 sequence (P30559 whole entry): T6 sequence (whole entry)
The data set can be described thus: Antagonist activity at OXR receptor (unknown origin). The data set is classed as functional.

Data set [19] concerns the target T6, Oxytocin receptor (Homo sapiens). Description: Agonist activity at human OTR receptor expressed in CHO cells assessed as increase in myo-inositol 1-phosphate accumulation at 1 uM by IP-One assay relative to OT. In kind it is functional, cell-based.
Data set [20] has as its target T3, Vasopressin V1a receptor. Description: Agonist activity at human V1A receptor expressed in CHO cells assessed as increase in myo-inositol 1-phosphate accumulation at 1 uM by IP-One assay relative to AVP. The data set is classed as functional, cell-based.
Target sequence in this assay (P37288 whole entry, looked up): as the sequence (P37288 whole entry) above
Data set [21] addresses T8, Vasopressin V1b receptor (Rattus norvegicus, UniProt P48974).
T8 sequence (P48974 whole entry): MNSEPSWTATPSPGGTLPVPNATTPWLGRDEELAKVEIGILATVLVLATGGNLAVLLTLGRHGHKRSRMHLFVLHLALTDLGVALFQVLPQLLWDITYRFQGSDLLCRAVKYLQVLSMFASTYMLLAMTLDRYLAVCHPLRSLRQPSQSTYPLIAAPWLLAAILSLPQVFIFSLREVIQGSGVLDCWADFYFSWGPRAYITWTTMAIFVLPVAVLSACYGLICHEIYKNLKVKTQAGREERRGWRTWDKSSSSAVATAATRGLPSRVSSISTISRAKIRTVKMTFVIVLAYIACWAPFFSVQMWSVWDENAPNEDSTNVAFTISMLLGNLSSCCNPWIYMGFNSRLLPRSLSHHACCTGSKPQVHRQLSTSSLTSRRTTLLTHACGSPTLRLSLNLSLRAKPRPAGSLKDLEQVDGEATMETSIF
Description: Displacement of [3H]AVP from V1B receptor in Wistar rat pituitary membranes incubated for 60 mins by microplate scintillation counting method. The data set is classed as cell membranes.

For data set [22], the target named is T3, Vasopressin V1a receptor. Description: Displacement of [3H]-AVP from human V1A receptor expressed in human HeLa cell membranes incubated for 2 hrs by scintillation counting method.
Target sequence in this assay (P37288 whole entry): as the sequence (P37288 whole entry) above
Data set [23] has as its target T4, Vasopressin V1b receptor. The data set can be described thus: Displacement of [3H]-AVP from human V1B receptor expressed in human HeLa cell membranes incubated for 2 hrs by scintillation counting method.
Data set [24] addresses T5, Vasopressin V2 receptor. Description: Displacement of [3H]-AVP from human V2 receptor expressed in human HeLa cell membranes incubated for 2 hrs by scintillation counting method.
Data set [25] deals with T5, Vasopressin V2 receptor. The data set can be described thus: Agonist activity at human V2 receptor expressed in human HeLa cells assessed as stimulation of cAMP accumulation by radioimmunoassay. The data set is classed as functional, cell-based.

Values after ≈ are worked out from the molar mass of the structure shown. Numbered stars: 1 amine (or outer) side, 2 acyl side, 3 side chain; on linkers, the order of the positions; unused ones are H or OH. Bridge positions count the residues as written; N and C are the ends. Peptide text beside a SMILES is read from it. X1 = O=C(CCC[*:2])[*:1] Where only a bound is given, the exact number is not on record here.

T5 sequence (P30518 whole entry): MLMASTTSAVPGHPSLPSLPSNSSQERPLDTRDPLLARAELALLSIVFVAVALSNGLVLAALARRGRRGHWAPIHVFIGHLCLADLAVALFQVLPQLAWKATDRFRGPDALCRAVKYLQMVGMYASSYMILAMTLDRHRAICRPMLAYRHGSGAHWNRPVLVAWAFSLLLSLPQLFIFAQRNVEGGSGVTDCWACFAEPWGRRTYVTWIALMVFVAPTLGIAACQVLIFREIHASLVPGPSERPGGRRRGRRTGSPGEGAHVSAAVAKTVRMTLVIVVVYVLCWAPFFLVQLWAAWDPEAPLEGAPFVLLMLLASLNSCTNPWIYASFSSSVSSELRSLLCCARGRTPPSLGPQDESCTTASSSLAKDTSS

With `CC[C@H](C)[C@@H]1NC(=O)[C@H](Cc2ccc(OC)cc2)NC(=O)CCCSC[C@@H](C(=O)N2CCC[C@H]2C(=O)N[C@@H](CC(C)C)C(=O)NCC(N)=O)NC(=O)[C@H](CC(N)=O)NC(=O)[C@H](CCC(N)=O)NC1=O` [CARBETOCIN] (Y(Me)IQNCPLG-NH2; linker N-5 via X1), the results for the half-maximal effective concentration (EC50) in [1], in data set [3] and in data set [5] were 62 nM, “Not Active” and “Not Active”, respectively. Besides, in data set [2], the maximal response (Emax) was 85%. For the same molecule, the IC50 entry in data set [4] is reported as “Not Active”.

In the case of `Cc1cc(C(=O)N2Cc3cnn(C)c3Nc3ccccc32)ccc1CNC(=O)N1CCN(Cc2cc(O)cc(O)c2)CC1`, the inhibition constant Ki was 1000 to 5800 nM in [6], 58.4 to 1000 nM in data set [7] and over 1000 nM in data set [8]. In addition, the maximum response (Emax) in data set [9] came out at 40%; in data set [12], 70%; in data set [2] it was 86%; in data set [14] it was 84%; in [15] it was 87.1%. Also, the inhibition in [10] was in the range of 5 to 10%. Moreover, in [11], the solubility thermodynamic is 5 mM (≈ 2910 µg/mL). Moreover, the EC50 came out at 78 nM in [1] and 2300 nM in data set [13].

On to `O=C(Nc1ccc(C(=O)N2CCCCc3ccccc32)cc1)c1ccccc1-c1ccccc1`, for which the figures for the IC50 in [16], in data set [17] and in data set [18] were 2.74 nM, 0.57 nM and 109 nM, respectively. The Emax in data set [19] and in [20] was under 10% throughout.

Consider `Cc1nc2c([nH]1)-c1ccccc1N(C(=O)c1ccc(NC(=O)c3ccccc3-c3ccccc3)cc1)CC2` [CONIVAPTAN], for which the Ki in data set [21] was over 10000 nM.

Regarding `CC(C)NC(=O)C[C@H]1CCCN(C(=O)c2ccc(N3CCCC3)cc2Cl)c2ccccc21`, the Ki in data set [22] stood at 819 nM; in data set [24], 91.9 nM. Also, the IC50 in [23] is over 100000 nM. Also, the concentration giving a half-maximal response (EC50) in data set [25] stood at 189 nM.
